The results in this text go back to ChEMBL document CHEMBL4610034, “Synthesis and biological evaluation of 4-arylcoumarins as potential anti-Alzheimer's disease agents” (Bioorg Med Chem Lett, 2020).

Calls of active or inactive are those of the source. No cut-off for these calls is given here. Bounds are passed on as bounds.

The target of one series is Acetylcholinesterase (Electrophorus electricus, UniProt O42275). In words: Inhibition of electric eel AChE using acetylthiocholine as substrate preincubated for 5 mins followed by substrate addition measured after 20 mins by Ellman's method. (In general: DTNB colorimetry detects thiols as they appear.)
The target in another series is Cholinesterase (Equus caballus, UniProt P81908). The series can be described thus: Inhibition of equine serum BuChE using butyrylthiocholine as substrate preincubated for 5 mins followed by substrate addition measured after 20 mins by Ellman's method.
For series [1], the target named is T1, Amine oxidase [flavin-containing] B (Rattus norvegicus, UniProt P19643).
T1 sequence (P19643 whole entry): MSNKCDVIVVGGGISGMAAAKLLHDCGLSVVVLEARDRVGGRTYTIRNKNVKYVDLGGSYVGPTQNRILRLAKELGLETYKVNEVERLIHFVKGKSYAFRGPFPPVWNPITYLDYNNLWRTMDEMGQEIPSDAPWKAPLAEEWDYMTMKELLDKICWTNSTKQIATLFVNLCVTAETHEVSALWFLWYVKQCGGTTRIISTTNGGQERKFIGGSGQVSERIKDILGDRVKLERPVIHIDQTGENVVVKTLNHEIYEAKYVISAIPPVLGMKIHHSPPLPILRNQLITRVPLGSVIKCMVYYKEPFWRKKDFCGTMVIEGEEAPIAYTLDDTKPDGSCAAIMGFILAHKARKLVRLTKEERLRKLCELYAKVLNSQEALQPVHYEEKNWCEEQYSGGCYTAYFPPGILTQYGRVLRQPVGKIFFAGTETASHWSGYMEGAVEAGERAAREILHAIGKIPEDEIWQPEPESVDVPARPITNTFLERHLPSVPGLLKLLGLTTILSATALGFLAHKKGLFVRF
The series can be described thus: Inhibition of MAO-B in Wistar rat liver using 4-trifluoromethyl benzylamine as substrate preincubated for 20 mins followed by substrate addition measured after 90 mins by microplate reader assay. Type of series: tissue-based.

Series [2] can be described thus: Antioxidant activity assessed as reduction of colourless Fe3+-TPTZ complex to coloured Fe2+-TPTZ complex measured after 5 mins by FRAP assay. Type of series: functional.
The target in series [3] is T1, Amine oxidase [flavin-containing] B. The series can be described thus: Non-competitive inhibition of MAO-B extracted from Wistar rat liver at 5 to 500 uM using varying level of 4-trifluoromethyl benzylamine as substrate preincubated for 20 mins followed by substrate addition measured after 90 mins by microplate reader assay. Particulars: 1.5 h.
The target in series [4] is Acetylcholinesterase (Electrophorus electricus) (UniProt O42275). In words: Mixed-type inhibition of electric eel AChE at 0.5 to 50 nM using varying level of acetylthiocholine as substrate preincubated for 5 mins followed by substrate addition measured after 20 mins by Ellman's method.
Chain of Acetylcholinesterase (Electrophorus electricus) (O42275 24-633 limits assumed): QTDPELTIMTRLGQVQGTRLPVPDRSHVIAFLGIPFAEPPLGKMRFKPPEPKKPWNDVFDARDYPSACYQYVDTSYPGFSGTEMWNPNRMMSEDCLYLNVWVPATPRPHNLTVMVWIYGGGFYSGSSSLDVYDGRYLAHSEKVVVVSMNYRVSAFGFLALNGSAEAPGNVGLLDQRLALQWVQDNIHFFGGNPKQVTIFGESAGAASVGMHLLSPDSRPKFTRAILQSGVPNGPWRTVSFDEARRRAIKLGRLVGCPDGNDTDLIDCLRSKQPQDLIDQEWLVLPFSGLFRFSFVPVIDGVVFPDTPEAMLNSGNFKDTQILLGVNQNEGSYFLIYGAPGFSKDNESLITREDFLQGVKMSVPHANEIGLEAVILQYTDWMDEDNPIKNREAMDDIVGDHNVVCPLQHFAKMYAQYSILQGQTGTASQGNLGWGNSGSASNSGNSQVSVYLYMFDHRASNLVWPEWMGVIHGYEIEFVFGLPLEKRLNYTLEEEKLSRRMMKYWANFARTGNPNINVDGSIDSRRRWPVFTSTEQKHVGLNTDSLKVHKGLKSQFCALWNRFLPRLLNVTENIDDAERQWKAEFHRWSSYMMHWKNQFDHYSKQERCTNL

Chain of Cholinesterase (P81908 whole entry): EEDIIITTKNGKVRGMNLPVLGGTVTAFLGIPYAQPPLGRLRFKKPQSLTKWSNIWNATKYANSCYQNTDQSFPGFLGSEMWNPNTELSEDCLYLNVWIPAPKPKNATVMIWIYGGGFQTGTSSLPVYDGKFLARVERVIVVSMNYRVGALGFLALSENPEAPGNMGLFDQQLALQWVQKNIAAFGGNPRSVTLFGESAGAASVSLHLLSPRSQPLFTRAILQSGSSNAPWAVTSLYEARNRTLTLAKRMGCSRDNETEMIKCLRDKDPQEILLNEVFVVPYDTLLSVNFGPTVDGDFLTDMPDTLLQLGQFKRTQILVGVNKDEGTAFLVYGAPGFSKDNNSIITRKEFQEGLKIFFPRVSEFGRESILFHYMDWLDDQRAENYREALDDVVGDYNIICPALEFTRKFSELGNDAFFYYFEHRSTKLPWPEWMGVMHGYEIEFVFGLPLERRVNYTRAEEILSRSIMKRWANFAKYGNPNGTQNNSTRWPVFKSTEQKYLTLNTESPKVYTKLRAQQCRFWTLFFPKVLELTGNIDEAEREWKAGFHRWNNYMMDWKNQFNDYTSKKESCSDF
Chain of Acetylcholinesterase (O42275 whole entry): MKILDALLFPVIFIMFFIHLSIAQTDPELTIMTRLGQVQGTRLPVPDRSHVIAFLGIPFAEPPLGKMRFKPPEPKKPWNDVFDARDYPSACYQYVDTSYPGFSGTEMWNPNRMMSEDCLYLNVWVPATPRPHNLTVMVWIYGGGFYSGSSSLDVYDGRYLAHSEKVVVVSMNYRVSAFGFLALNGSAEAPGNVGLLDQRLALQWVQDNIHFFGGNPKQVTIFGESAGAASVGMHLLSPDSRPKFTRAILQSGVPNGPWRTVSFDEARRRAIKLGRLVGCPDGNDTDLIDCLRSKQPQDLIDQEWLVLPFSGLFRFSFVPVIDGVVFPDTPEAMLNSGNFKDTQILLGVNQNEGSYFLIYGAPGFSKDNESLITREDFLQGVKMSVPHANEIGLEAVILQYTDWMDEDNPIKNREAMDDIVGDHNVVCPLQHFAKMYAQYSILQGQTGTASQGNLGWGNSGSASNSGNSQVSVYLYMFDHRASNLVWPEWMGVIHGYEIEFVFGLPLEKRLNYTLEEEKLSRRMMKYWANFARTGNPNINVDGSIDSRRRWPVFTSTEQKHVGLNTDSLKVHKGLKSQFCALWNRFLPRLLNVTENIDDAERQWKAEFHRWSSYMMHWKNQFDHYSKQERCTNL

`COc1ccc(C2CC(=O)Oc3cc(O)cc(O)c32)cc1OC` (stereo not drawn): the IC50 against Acetylcholinesterase was more than 50 µM; at Cholinesterase, more than 300 µM; in series [1], 141 µM. Besides, the Activity in series [2] turned out to be 1.5 mmol/g.

For `COc1cc(C2CC(=O)Oc3cc(O)ccc32)ccc1O` (stereo not drawn), the IC50 on Acetylcholinesterase was more than 50 µM; against Cholinesterase, more than 300 µM; in series [1], 82.5 µM. Moreover, the Activity in series [2] was determined as 9.38 mmol/g.

As for `COc1cc(C2CC(=O)Oc3c2ccc(O)c3O)ccc1O` (stereo not drawn), in series [3], the “inhibition (INH)” value is recorded as “Active”. The values for the IC50 (on Acetylcholinesterase; at Cholinesterase; in series [1]) were 10.9 µM, 134 µM and 0.257 µM, respectively. In addition, the Activity in series [2] is 10.1 mmol/g.

For the molecule `O=c1cc(-c2ccc(O)c(O)c2)c2cc(O)cc(O)c2o1`, the 50% inhibitory concentration (IC50) worked out at 7 µM at Acetylcholinesterase, 208 µM against Cholinesterase and 22.2 µM in series [1]. Moreover, in series [2], the Activity stood at 10.5 mmol/g.

On to `O=C1CC(c2ccc(O)cc2)c2c(O)cc(O)cc2O1` (stereo not drawn), for which the IC50 was more than 50 µM on Acetylcholinesterase, more than 300 µM on Cholinesterase and 19.4 µM in series [1]. The Activity in series [2] is 2.26 mmol/g.

`O=c1cc(-c2cc(O)c(O)c(O)c2)c2ccc(O)c(O)c2o1`: the IC50 was 0.025 µM at Acetylcholinesterase, 106 µM against Cholinesterase and 1.99 µM in series [1]. For the same molecule, the inhibition entry in series [4] was “Active”. Also, the Activity in series [2] came out at 10.1 mmol/g.

`COc1cc(-c2cc(=O)oc3c(O)c(O)ccc23)cc(OC)c1OC`: the IC50 is 0.299 µM against Acetylcholinesterase, more than 300 µM against Cholinesterase and more than 300 µM in series [1]. Moreover, the Activity in series [2] amounted to 9.65 mmol/g.

Take `COc1ccc(C2CC(=O)Oc3c(O)cc(O)cc32)cc1OC` (stereo not drawn): the IC50 against Acetylcholinesterase is more than 50 µM; against Cholinesterase, more than 300 µM; in series [1], 26.6 µM. For the same molecule, the Activity in series [2] was 4.76 mmol/g.

In the case of `COc1ccc(C2CC(=O)Oc3c(O)cc(O)cc32)cc1` (stereo not drawn), the IC50 is more than 50 µM against Acetylcholinesterase, more than 300 µM against Cholinesterase and 75.4 µM in series [1]. In addition, the Activity in series [2] was 2.85 mmol/g.

Regarding `COc1cc(C2CC(=O)Oc3cc(O)cc(O)c32)ccc1O` (stereo not drawn), the IC50 against Acetylcholinesterase is more than 50 µM; against Cholinesterase it was more than 300 µM; in series [1], 55.9 µM. In addition, the Activity in series [2] turned out to be 9.01 mmol/g.

For the molecule `COc1ccc(C2CC(=O)Oc3ccc(O)cc32)cc1OC` (stereo not drawn), the half-maximal inhibitory concentration (IC50) at Acetylcholinesterase is more than 50 µM; at Cholinesterase, more than 300 µM; in series [1], more than 300 µM. The Activity in series [2] amounted to 0.922 mmol/g.

For the molecule `O=c1cc(-c2ccc(O)c(O)c2)c2ccc(O)cc2o1`, the 50% inhibitory concentration (IC50) was 8.86 µM on Acetylcholinesterase, more than 300 µM at Cholinesterase and more than 300 µM in series [1]. For the same molecule, in series [2], the Activity came out at 9.71 mmol/g.

On to `COc1ccc(-c2cc(=O)oc3c(O)c(O)ccc23)cc1OC`, for which the 50% inhibitory concentration (IC50) against Acetylcholinesterase is 0.052 µM; at Cholinesterase, more than 300 µM; in series [1], more than 300 µM. Besides, in series [2], the Activity stood at 9.89 mmol/g.

As to `O=C1CC(c2ccc(O)c(O)c2)c2ccc(O)c(O)c2O1` (stereo not drawn), the IC50 at Acetylcholinesterase amounted to 0.283 µM; on Cholinesterase it was 72.5 µM; in series [1], 0.43 µM. For the same molecule, the Activity in series [2] is 9.6 mmol/g.

`O=c1cc(-c2ccc(O)cc2)c2ccc(O)c(O)c2o1`: the IC50 at Acetylcholinesterase was 9.45 µM; on Cholinesterase, more than 300 µM; in series [1] it was 293 µM. Moreover, the Activity in series [2] worked out at 9.89 mmol/g.

`COc1ccc(C2CC(=O)Oc3cc(O)cc(O)c32)cc1` (stereo not drawn): the IC50 against Acetylcholinesterase was more than 50 µM; against Cholinesterase, more than 300 µM; in series [1], 83.7 µM. In addition, the Activity in series [2] was 1.06 mmol/g.

On to `COc1ccc(-c2cc(=O)oc3cc(O)cc(O)c23)cc1OC`, for which the IC50 against Acetylcholinesterase was 7.92 µM; against Cholinesterase it was more than 300 µM; in series [1], 104 µM. Further, in series [2], the Activity turned out to be 1.37 mmol/g.

As for `COc1ccc(C2CC(=O)Oc3c2ccc(O)c3O)cc1` (stereo not drawn), the IC50 at Acetylcholinesterase is 21.6 µM; against Cholinesterase, 149 µM; in series [1] it was 2.18 µM. Further, the Activity in series [2] was determined as 9.17 mmol/g.

As for `O=c1cc(-c2ccc(O)c(O)c2)c2ccc(O)c(O)c2o1`, the IC50 against Acetylcholinesterase is 7.05 µM; against Cholinesterase, 188 µM; in series [1], 189 µM. In addition, in series [2], the Activity amounted to 10.5 mmol/g.

With `O=C1O[C@H]([C@@H](O)CO)C(O)=C1O`, the Activity in series [2] was determined as 9.87 mmol/g.

Regarding `COc1ccc(C2CC(=O)Oc3cc(O)ccc32)cc1` (stereo not drawn), the values for the IC50 (against Acetylcholinesterase; against Cholinesterase; in series [1]) were more than 50 µM, more than 300 µM and more than 300 µM, respectively. Also, in series [2], the Activity is 0.896 mmol/g.

What is called IC50 is the concentration needed to halve the response being measured. Read a high IC50 as weaker potency in that assay.
